Earlier results, collected in patent US10898463B2, “High-strength oral cannabinoid dosage forms” (ICDPHARMA LTD, priority 2016, dated 2021).

Details: octanol/water

Row | Molecule | LogP
1 | CC1=CCC2CC1C2(C)C (stereo not shown) [Alfa-pinene] | 4.37
2 | C=C1CC/C=C(\C)CC[C@@H]2[C@@H]1CC2(C)C [Beta-caryophyllene] | 4.72
3 | CC(C)=CCC[C@](C)(O)C1CC=C(C)CC1 (stereo partly shown) [Bisabolol] | 5.07
4 | C=C1C2CCC(C2)C1(C)C (stereo not shown) [Camphene] | 4.24
5 | CC12CCC(CC1=O)C2(C)C (stereo not shown) [Camphor] | 2.55
6 | CC1=CCC2C(C1)C2(C)C (stereo not shown) [Carene] | 4.32
7 | CC12CCC(CC1)C(C)(C)O2 [Cineol] | 2.7
8 | C=CCc1ccc(O)c(OC)c1 [Eugenol] | 2.66
9 | C=C(C)[C@H]1CC=C(C)CC1 [Limonene] | 2.38
10 | C=CC(C)(O)CCC=C(C)C (stereo not shown) [Linalool] | 2.65
11 | COC(=O)c1ccccc1O [Methyl salicylate] | 2.3
12 | C=CC(=C)CCC=C(C)C [Myrcene] | 4.17
13 | C=CC(C)(O)CCC=C(C)CCC=C(C)C (stereo not shown) [Nerolidol] | 4.68
14 | C/C(=C\CO)CCC[C@H](C)CCC[C@H](C)CCCC(C)C [Phytol] | 7.04
15 | CC(C)=C1CC[C@@H](C)CC1=O [Pulegone] | 3.08
16 | CC1=CCC(O)(C(C)C)CC1 (stereo not shown) [Terpinen-4-ol] | 3.26
17 | Cc1ccc(C(C)C)c(O)c1 [Thymol] | 3.28
18 | Citronella | 3.53
19 | Terpinene | 4.5
